Reference: patent publication US8378104B2 (OSI Pharmaceuticals, LLC, priority 2010, dated 2013)
Counter-ions that a name gives are not always drawn.

Target: T1, TAK1-TAB1 fusion protein (Homo sapiens, UniProt O43318)
T1 construct: purchased Carna
T1 sequence (O43318 with tags, fused parts or gaps limits assumed): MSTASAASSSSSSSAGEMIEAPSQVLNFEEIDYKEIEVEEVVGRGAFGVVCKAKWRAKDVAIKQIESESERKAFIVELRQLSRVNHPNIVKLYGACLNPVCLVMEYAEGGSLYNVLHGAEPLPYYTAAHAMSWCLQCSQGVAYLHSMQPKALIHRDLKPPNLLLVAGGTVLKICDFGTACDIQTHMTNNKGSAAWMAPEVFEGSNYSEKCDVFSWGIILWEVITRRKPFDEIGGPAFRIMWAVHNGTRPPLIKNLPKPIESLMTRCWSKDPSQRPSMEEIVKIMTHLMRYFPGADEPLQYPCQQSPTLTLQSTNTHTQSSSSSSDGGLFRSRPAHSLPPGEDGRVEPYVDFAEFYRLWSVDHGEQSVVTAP
Experiment: TAK1 biochemical assay (AlphaScreen, GST-MAP2K7 substrate)
Conditions: TAK1-TAB1 fusion protein, GST-MAP2K7 substrate; read-out: mean TAK1 IC50 (Col. A)

IC50	SMILES
< 100 nM	Nc1ncc(-c2cnn(C3CCNCC3)c2)c2c(Cl)c(-c3cccc4ccsc34)oc12 [Example 13, 2-(1-benzothiophen-7-yl)-3-chloro-4-[1-(piperidin-4-yl)-1H-pyrazol-4-yl]furo[2,3-c]pyridin-7-amine hydrochloride]
> 10000 nM	Nc1ncc(-c2cnn(C3CCNCC3)c2)c2cc(C3CCNCC3)oc12 [Example 54, 2-(piperidin-4-yl)-4-[1-(piperidin-4-yl)-1H-pyrazol-4-yl]furo[2,3-c]pyridin-7-amine]
100 to 1000 nM	Nc1ncc(-c2cnn(C3CNC3)c2)c2cc(-c3cccc4cnccc34)oc12 [Example 64, 4-[1-(azetidin-3-yl)-1H-pyrazol-4-yl]-2-(isoquinolin-5-yl)furo[2,3-c]pyridin-7-amine]
1000 to 10000 nM	Nc1ncc(-c2cnn([C@H]3CC[C@H](O)CC3)c2)c2cc(-c3ccc4c(c3)CNC4=O)oc12 [Example 404, 5-{7-amino-4-[1-(trans-4-hydroxycyclohexyl)-1H-pyrazol-4-yl]furo[2,3-c]pyridin-2-yl}-2,3-dihydro-1H-isoindol-1-one]
1000 to 10000 nM	CCC(=O)N1CCC(n2cc(-c3cnc(N)c4oc(-c5cccc6ccsc56)cc34)cn2)CC1 [Example 58, 1-(4-{4-[7-amino-2-(1-benzothiophen-7-yl)furo[2,3-c]pyridin-4-yl]-1H-pyrazol-1-yl}piperidin-1-yl)propan-1-one]
1000 to 10000 nM	CC(C)Oc1cccc(/C=C/C(=O)N2CCC(n3cc(-c4cnc(N)c5oc(-c6cccc7cnsc67)cc45)cn3)CC2)c1 [Example 337, (E)-1-{4-[4-(7-amino-2-benzo[d]isothiazol-7-yl-furo[2,3-c]pyridin-4-yl)-pyrazol-1-yl]-piperidin-1-yl}-3-(3-isopropoxy-phenyl)-propenone]
100 to 1000 nM	CC(=O)N1CCC(n2cc(-c3cnc(N)c4oc(-c5ccc(N)nc5)cc34)cn2)CC1 [Example 147, 1-(4-{4-[7-amino-2-(6-aminopyridin-3-yl)furo[2,3-c]pyridin-4-yl]-1H-pyrazol-1-yl}piperidin-1-yl)ethanone]
1000 to 10000 nM	Nc1ncc(-c2cnn(C3CCNCC3)c2)c2c(Cl)c(-c3ccc4[nH]ccc4c3)oc12 [Example 14, 3-chloro-2-(1H-indol-5-yl)-4-[1-(piperidin-4-yl)-1H-pyrazol-4-yl]furo[2,3-c]pyridin-7-amine hydrochloride]
100 to 1000 nM	Nc1ncc(-c2cnn(C3CCNCC3)c2)c2c(Cl)c(-c3ccccc3)oc12 [Example 12, 3-chloro-2-phenyl-4-[1-(piperidin-4-yl)-1H-pyrazol-4-yl]furo[2,3-c]pyridin-7-amine hydrochloride]
1000 to 10000 nM	Nc1ncc(-c2cnn(C3CCNCC3)c2)c2cc(-c3cccc4c3Sc3ccccc3S4)oc12 [Example 35, 4-[1-(piperidin-4-yl)-1H-pyrazol-4-yl]-2-(thianthren-1-yl)furo[2,3-c]pyridine-7-amine]
> 10000 nM	CC(=O)N1CCC(n2cc(-c3cnc(N)c4oc(-c5ccc(N6CCCCC6)nc5)cc34)cn2)CC1 [Example 118, 1-[4-(4-{7-amino-2-[6-(piperidin-1-yl)pyridin-3-yl]furo[2,3-c]pyridin-4-yl}-1H-pyrazol-1-yl)piperidin-1-yl]ethanone]
1000 to 10000 nM	CC(=O)N1CCC(n2cc(-c3cnc(N)c4oc(-c5csc6cn(C)c(=O)cc56)cc34)cn2)CC1 [Example 244, 3-{4-[1-(1-acetylpiperidin-4-yl)-1H-pyrazol-4-yl]-7-aminofuro[2,3-c]pyridin-2-yl}-6-methylthieno[2,3-c]pyridin-5(6H)-one trifluoroacetate]
100 to 1000 nM	CC(=O)N1CCC(n2cc(-c3cnc(N)c4oc(-c5cccc(OCc6ccncc6)c5)cc34)cn2)CC1 [Example 203, 1-[4-(4-{7-amino-2-[3-(pyridin-4-ylmethoxy)phenyl]furo[2,3-c]pyridin-4-yl}-1H-pyrazol-1-yl)piperidin-1-yl]ethanone]
1000 to 10000 nM	CC(=O)N1CCC(n2cc(-c3cnc(N)c4oc(-c5ccnc6cc(Cl)ccc56)cc34)cn2)CC1 [Example 409, 1-(4-{4-[7-amino-2-(7-chloroquinolin-4-yl)furo[2,3-c]pyridin-4-yl]-1H-pyrazol-1-yl}piperidin-1-yl)ethanone]
1000 to 10000 nM	Cc1cc(-c2cnc(N)c3oc(-c4csc5cnccc45)cc23)cs1 [Example 393, 4-(5-methylthiophen-3-yl)-2-(thieno[2,3-c]pyridin-3-yl)furo[2,3-c]pyridin-7-amine trifluoroacetate]
100 to 1000 nM	Nc1ncc(-c2cnn(C3CCNCC3)c2)c2cc(-c3cccc4cc[nH]c34)oc12 [Example 42, 2-(1H-indol-7-yl)-4-[1-(piperidin-4-yl)-1H-pyrazol-4-yl]furo[2,3-c]pyridin-7-amine]

IC50	SMILES
100 to 1000 nM	Nc1ncc(-c2cnn([C@H]3CC[C@H](O)CC3)c2)c2cc(-c3ccc4cn[nH]c4c3)oc12 [Example 406, trans-4-{4-[7-amino-2-(1H-indazol-6-yl)furo[2,3-c]pyridin-4-yl]-1H-pyrazol-1-yl}cyclohexanol]
100 to 1000 nM	Nc1ncc(-c2cnn([C@H]3CC[C@H](O)CC3)c2)c2cc(-c3cc(-c4cc[nH]n4)cc4nnsc34)oc12 [Example 374, trans-4-(4-{7-amino-2-[5-(1H-pyrazol-3-yl)-1,2,3-benzothiadiazol-7-yl]furo[2,3-c]pyridin-4-yl}-1H-pyrazol-1-yl)cyclohexanol]
1000 to 10000 nM	CC(=O)N1CCC(n2cc(-c3cnc(N)c4oc(-c5cccc(S(N)(=O)=O)c5)cc34)cn2)CC1 [Example 102, 3-{4-[1-(1-acetylpiperidin-4-yl)-1H-pyrazol-4-yl]-7-aminofuro[2,3-c]pyridin-2-yl}benzenesulfonamide]
> 10000 nM	N#Cc1ccsc1-c1cnc(N)c2oc(-c3csc4cnccc34)cc12 [Example 383, 2-(7-amino-2-thieno[2,3-c]pyridin-3-yl-furo[2,3-c]pyridin-4-yl)-thiophene-3-carbonitrile]
> 10000 nM	CC(=O)N1CCC(n2cc(-c3cnc(N)c4oc(-c5cccc6ccoc56)cc34)cn2)CC1 [Example 196, 1-(4-{4-[7-amino-2-(1-benzofuran-7-yl)furo[2,3-c]pyridin-4-yl]-1H-pyrazol-1-yl}piperidin-1-yl)ethanone]
1000 to 10000 nM	CC(=O)N1CCC(n2cc(-c3cnc(N)c4oc(-c5cccc(OCc6cccnc6)c5)cc34)cn2)CC1 [Example 202, 1-[4-(4-{7-amino-2-[3-(pyridin-3-ylmethoxy)phenyl]furo[2,3-c]pyridin-4-yl}-1H-pyrazol-1-yl)piperidin-1-yl]ethanone]
> 10000 nM	CCOC(=O)[C@H]1CC[C@H](n2cc(-c3cnc(N)c4oc(-c5csc6cnccc56)cc34)c(C)n2)CC1 [Example 298, 4-[4-(7-amino-2-thieno[2,3-c]pyridin-3-yl-furo[2,3-c]pyridin-4-yl)-3-methyl-pyrazol-1-yl]-cyclohexane carboxylic acid ethyl ester]
1000 to 10000 nM	Cc1cc(-c2cnc(N)c3oc(-c4csc5cnccc45)cc23)c(C)s1 [Example 377, 4-(2,5-dimethyl-thiophen-3-yl)-2-thieno[2,3-c]pyridin-3-yl-furo[2,3-c]pyridin-7-ylamine]
1000 to 10000 nM	Cc1c(-c2ccc3[nH]ncc3c2)oc2c(N)ncc(-c3cnn(C4CCNCC4)c3)c12 [Example 11, 2-(1H-indazol-5-yl)-3-methyl-4-[1-(piperidin-4-yl)-1H-pyrazol-4-yl]furo[2,3-c]pyridin-7-amine hydrochloride]
1000 to 10000 nM	CC(=O)N1CCC(n2cc(-c3cnc(N)c4oc(-c5cccc(C(=O)N6CCOCC6)c5)cc34)cn2)CC1 [Example 127, 1-[4-(4-{7-amino-2-[3-(morpholin-4-ylcarbonyl)phenyl]furo[2,3-c]pyridin-4-yl}-1H-pyrazol-1-yl)piperidin-1-yl]ethanone]
> 10000 nM	CC(=O)N1CCC(n2cc(-c3cnc(N)c4oc(-c5cccc(OCc6ccccc6Cl)c5)cc34)cn2)CC1 [Example 166, 1-{4-[4-(7-amino-2-{3-[(2-chlorobenzyl)oxy]phenyl}furo[2,3-c]pyridin-4-yl)-1H-pyrazol-1-yl]piperidin-1-yl}ethanone]
1000 to 10000 nM	CC(=O)N1CCC(n2cc(-c3cnc(N)c4oc(-c5ccc(CO)cc5)cc34)cn2)CC1 [Example 184, 1-[4-(4-{7-amino-2-[4-(hydroxymethyl)phenyl]furo[2,3-c]pyridin-4-yl}-1H-pyrazol-1-yl)piperidin-1-yl]ethanone]
1000 to 10000 nM	Nc1ncc(-c2cnn([C@H]3CC[C@H](O)CC3)c2)c2cc(-c3cc(-c4cccc(F)c4)cc4nnsc34)oc12 [Example 369, trans-4-(4-{7-amino-2-[5-(3-fluorophenyl)-1,2,3-benzothiadiazol-7-yl]furo[2,3-c]pyridin-4-yl}-1H-pyrazol-1-yl)cyclohexanol]
100 to 1000 nM	N#Cc1cc(-c2cc3c(-c4cnn([C@H]5CC[C@H](O)CC5)c4)cnc(N)c3o2)ccc1N [Example 407, 2-amino-5-{7-amino-4-[1-(trans-4-hydroxycyclohexyl)-1H-pyrazol-4-yl]furo[2,3-c]pyridin-2-yl}benzonitrile]
1000 to 10000 nM	COCc1ccccc1-c1cc2c(-c3cnn(C4CCN(C(C)=O)CC4)c3)cnc(N)c2o1 [Example 195, 1-[4-(4-{7-amino-2-[2-(methoxymethyl)phenyl]furo[2,3-c]pyridin-4-yl}-1H-pyrazol-1-yl)piperidin-1-yl]ethanone]
1000 to 10000 nM	CC(=O)N1CCC(n2cc(-c3cnc(N)c4oc(-c5cnc6cnccn56)cc34)cn2)CC1 [Example 274, 1-(4-{4-[7-amino-2-(imidazol[1,2-a]pyrazin-3-yl)furo[2,3-c]pyridin-4-yl]-1H-pyrazol-1-yl}piperidin-1-yl)ethanone trifluoroacetic acid salt]
